System: Phi6 bacteriophage (surrogate for Coronavirus and Ebola)
Format: cell-based

[O][Cl+][O-] [ClO2, chlorine dioxide]
log reduction of virions: 6 log | time in which 6-log reduction was achieved: less than 90 minutes | virions recovered from the coupons treated with ClO2 gas: no virions were recovered

— patent publication US12010997B2, “Systems, methods, and apparatuses for disinfection and decontamination” (priority 2020, dated 2024)
